Source: patent US4853398A, “Leukotriene antagonists and use thereas” (Eli Lilly and Company, priority 1987, dated 1989)

System: LTD4 evoked ileal contractions
Assay: LTD4 antagonism: inhibition of LTD4 evoked ileal contractions (isolated guinea pig ileum)
Parameters: species or system guinea pig (male, Hartley)
Settings: for -log IC50: 50% inhibition of LTD4 responses, interpolated by linear regression from 2-4 concentrations; for Percent inhibition of LTD4 evoked ileal contractions: isolated ileum, five minute exposure
Description: Male, Hartley guinea pigs weighing 200-450 grams were killed by decapitation. A section of terminal ileum was removed, the lumen cleaned, and the tissue divided into 2.5 cm. segments. The ilea were mounted in 10 ml. tissue baths containing Krebs-bicarbonate solution of the following composition in mmoles/liter: KCl, 4.6; CaCl2.2H2 O, 1.2; KH2 PO4, 1.2; MgSO4.7H2 O, 1.2; NaCl, 118.2; NaHCO3, 24.8; and dextrose, 10.0. The bath fluid was maintained at 37° C. and aerated with 95 percent oxygen and 5 percent CO2. In addition, the buffer contained 1×10^-6 M atropine to reduce ileal spontaneous activity. Isometric measurements were made with a Grass FTO3C force-displacement transducer and recorded on a Grass polygraph as change in grams of force. A passive force of 0.5 g. was applied to the tissues. After an appropriate equilibration period, single submaximal control responses to pure LTD4 were obtained. Following a five minute exposure of the ileum to an experimental drug, the control concentration of LTD4 was added to the tissue bath. The response of the ileum to LTD4 in the presence of the drug was compared to the response in the absence of the drug. Various degrees of LTD4 antagonism were obtained using 2-4 different concentrations of an experimental compound on a single ileum.

[1] = compound concentration 1 × 10^-7 M
[2] = compound concentration 3 × 10^-7 M
[3] = compound concentration 3 × 10^-8 M
[4] = compound concentration 1 × 10^-8 M
[5] = compound concentration 3 × 10^-9 M

## CCCc1c(COc2ccc(Oc3ccc(-c4nnn[nH]4)cc3)cc2)ccc(C(C)=O)c1O [Example 4, 1-[2-Hydroxy-3-propyl-4-({4-[4-(1H-tetrazol-5-yl)-phenoxy]phenoxy}methyl)phenyl]ethanone]
  -log IC50: 7.08
[1]
  Percent inhibition of LTD4 evoked ileal contractions: 53%
[2]
  Percent inhibition of LTD4 evoked ileal contractions: 80%
[3]
  Percent inhibition of LTD4 evoked ileal contractions: 25%

## CCCc1c(COc2ccc(C(O)c3cccc(-c4nnn[nH]4)c3)cc2)ccc(C(C)=O)c1O (stereo not shown) [Example 3, 1-{2-Hydroxy-4-[(4-{hydroxy[3-(1H-tetrazol-5-yl)-phenyl]methyl}phenoxy)methyl]-3-propylphenyl}ethanone]
  -log IC50: 7.89
[1]
  Percent inhibition of LTD4 evoked ileal contractions: 81%
[4]
  Percent inhibition of LTD4 evoked ileal contractions: 40%
[3]
  Percent inhibition of LTD4 evoked ileal contractions: 75%

## CCCc1c(COc2ccc(C(=O)c3ccc(-c4nnn[nH]4)cc3)cc2)ccc(C(C)=O)c1O [Example 2, 1-[2-Hydroxy-3-propyl-4-({4-[4-(1H-tetrazol-5-yl)-benzoyl]phenoxy}methyl)phenyl]ethanone]
  -log IC50: 8.29
[4]
  Percent inhibition of LTD4 evoked ileal contractions: 72%
[5]
  Percent inhibition of LTD4 evoked ileal contractions: 32%

## CCCc1c(COc2ccc(C(=O)c3cccc(-c4nnn[nH]4)c3)cc2)ccc(C(C)=O)c1O [Example 1, 1-[2-Hydroxy-3-propyl-4-({4-[3-(1H-tetrazol-5-yl)benzoyl]phenoxy}methyl)phenyl]ethanone]
  -log IC50: 8.58
Compound concentration 1 × 10^-9
  Percent inhibition of LTD4 evoked ileal contractions: 21%
[2]
  Percent inhibition of LTD4 evoked ileal contractions: 98%
[3]
  Percent inhibition of LTD4 evoked ileal contractions: 80%
[5]
  Percent inhibition of LTD4 evoked ileal contractions: 53%
